# Target: T1, human DGAT1 (Homo sapiens, UniProt O75907)
# T1 construct: made in house; host or cells: insect cells (sf9, sf21 or High Five) infected with baculovirus; total cell membranes
# T1 sequence (O75907 1-488): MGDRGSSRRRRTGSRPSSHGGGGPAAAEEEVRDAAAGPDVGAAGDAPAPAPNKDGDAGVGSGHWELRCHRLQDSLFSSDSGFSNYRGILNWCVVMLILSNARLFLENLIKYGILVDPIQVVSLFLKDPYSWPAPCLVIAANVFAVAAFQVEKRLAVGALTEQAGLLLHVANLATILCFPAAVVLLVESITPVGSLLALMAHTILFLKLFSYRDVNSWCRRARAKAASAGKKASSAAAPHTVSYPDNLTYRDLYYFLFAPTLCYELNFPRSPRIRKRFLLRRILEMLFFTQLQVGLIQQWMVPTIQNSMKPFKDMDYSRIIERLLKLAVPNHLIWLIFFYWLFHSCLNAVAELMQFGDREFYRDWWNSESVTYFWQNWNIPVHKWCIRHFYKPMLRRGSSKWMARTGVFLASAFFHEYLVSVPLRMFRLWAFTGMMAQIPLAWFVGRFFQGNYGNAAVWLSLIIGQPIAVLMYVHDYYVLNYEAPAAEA
# Test: DGAT Scintillation Proximity Assay (SPA) with membranes of insect cells expressing human flagtag DGAT1
# Type: biochemical
# Conditions: read-out: hDGAT1 IC50
# Method: In such an assay human DGAT1 is cloned from a human liver cDNA library. PCR is used to add a restriction site and flag epitope at the most 5′ end and a restriction site at the 3′ end of the sequence. Thereafter, human flagtag (FT) DGAT1 baculovirus may be generated using a Bac-to-Bac Baculovirus Expression System® (Invitrogen). Insect cells (e.g., sf9, sf2 1, or High Five) are infected for 24 to 72 h and collected by centrifugation. Cell pellets are resuspended in homogenization buffer and lysed using a homogenization device, such as a Microfluidizer. Total cell membranes are collected by ultracentrifugation at 45,000 rpm for 1 h.
# A small aliquot (0.2 μg/well) of membrane is incubated with 10 μM compound or mercuric chloride (as positive control for inhibition) in the presence of enzyme substrate, dioleoyl glycerol (200 μM) in 384 well plates, final volume 50 gL per well. […] The reaction is stopped by adding Wheat Germ Agglutinin (WGA) SPA beads (0.2 mg) in mercuric chloride. Cell membranes are allowed to couple to the beads overnight. The signal can be measured using, for example, a Chemiluminescence Image Plate Reader (CLIPR) or TopCount device.
row,Structure (SMILES),IC50
1,"Cc1nc(N)c2c(n1)OC(C)(C)C(c1ccc(C3CCC(C(C)C(=O)O)CC3)cc1)=N2 (single isomer, unassigned) [Example 9]",10 to 100 nM
2,Nc1ncnc2c1N=C(c1ccccc1Br)CO2 [Example 1-5],> 100 nM
3,Nc1ncnc2c1N=C(c1ccc(Br)s1)CO2 [Example 1-24],> 100 nM
4,CN(C)C(=O)C=C1CCC(c2ccc(C3=Nc4c(N)ncnc4OC3(C)C)cc2)CC1 (centres unmarked) [Example 2-44],10 to 100 nM
5,CC1(C)Oc2ncnc(N)c2N=C1c1ccc(C2CCC(=CC(N)=O)CC2)cc1 (centres unmarked) [Example 2-46],10 to 100 nM
6,CC1(C)Oc2ncnc(N)c2N=C1c1ccc(C2CCC(=CC(=O)NCCO)CC2)cc1 (centres unmarked) [Example 2-48],10 to 100 nM
7,Cc1nc(N)c2c(n1)OC(C)(C)C(c1ccc([C@H]3CC[C@H](CNC(=O)COC(=O)CCC(=O)O)CC3)cc1)=N2 [Example 2-49],10 to 100 nM
8,CN1CCN(C(=O)C=C2CCC(c3ccc(C4=Nc5c(N)ncnc5OC4(C)C)cc3)CC2)CC1 (centres unmarked) [Example 2-50],10 to 100 nM
9,CN(C)CCNC(=O)C=C1CCC(c2ccc(C3=Nc4c(N)ncnc4OC3(C)C)cc2)CC1 (centres unmarked) [Example 2-51],10 to 100 nM
10,CC1(C)Oc2ncnc(N)c2N=C1c1ccc([C@H]2CC[C@H](CN)CC2)cc1 [Example 2-63],10 to 100 nM
11,CC1(C)Oc2ncnc(N)c2NC1c1ccc([C@H]2CC[C@H](CCO)CC2)cc1 (some centres unmarked) [Example 2-81],> 100 nM
12,CC1(C)Oc2ncnc(N)c2N=C1c1ccc(C2CCC(N3CCCC3)CC2)cc1 (centres unmarked) [Example 2-89],> 100 nM
13,CC1(C)Oc2ncnc(N)c2N=C1c1ccc(C2CCC(N3CCCCC3)CC2)cc1 (centres unmarked) [Example 2-90],> 100 nM
14,CC1(C)Oc2ncnc(N)c2N=C1c1ccc([C@H]2CC[C@H](CNC(=O)CO)CC2)cc1 [Example 2-91],10 to 100 nM
15,COc1ccc2[nH]c(C[C@H]3CC[C@H](c4ccc(C5=Nc6c(N)ncnc6OC5(C)C)cc4)CC3)nc2c1 [Example 2-121],10 to 100 nM
16,CC(C)(C)OC(=O)NS(=O)(=O)NC[C@H]1CC[C@H](c2ccc(C3=Nc4c(N)ncnc4OC3(C)C)cc2)CC1 [Example 2-125],< 10 nM
17,Cc1nc(N)c2c(n1)OC(C)(C)C(c1ccc([C@H]3CC[C@H](CC4=NS(=O)ON4)CC3)cc1)=N2 (some centres unmarked) [Example 2-153],< 10 nM
18,Cc1nc(N)c2c(n1)OC(C)(C)C(c1ccc([C@H]3CC[C@H](Cc4cc(O)[nH]n4)CC3)cc1)=N2 [Example 2-155],10 to 100 nM
19,Cc1nc(N)c2c(n1)OC(C)(C)C(c1ccc([C@H]3CC[C@H](Cn4oc(=O)[nH]c4=O)CC3)cc1)=N2 [Example 2-157],< 10 nM
20,Cc1nc(N)c2c(n1)OC(C)(C)C(c1ccc([C@H]3CC[C@H](CN4CC(C)(C)C(O)C4=O)CC3)cc1)=N2 (some centres unmarked) [Example 2-167],10 to 100 nM
21,Cc1nc(N)c2c(n1)OC(C)(C)C(c1ccc([C@H]3CC[C@H](Cc4nc(=O)on4C)CC3)cc1)=N2 [Example 2-168],10 to 100 nM

row,Structure (SMILES),IC50
1,Cc1nc(N)c2c(n1)OC(C)(C)C(c1ccc([C@H]3CC[C@H](CN4CCNC4=O)CC3)cc1)=N2 [Example 2-171],> 100 nM
2,CN1CCN(C(=O)CC[C@H]2CC[C@H](c3ccc(C4=Nc5c(N)ncnc5OC4(C)C)cc3)CC2)CC1 [Example 2-181],10 to 100 nM
3,CC1(C)Oc2ncnc(N)c2N=C1c1ccc([C@H]2CC[C@H](CO)CC2)cc1 [Example 2-216],10 to 100 nM
4,CC1(C)Oc2ncnc(N)c2NC1c1ccc([C@H]2CC[C@H](CO)CC2)cc1 (some centres unmarked) [Example 2-223],> 100 nM
5,CC1(C)Oc2ncnc(N)c2N=C1c1ccc([C@H]2CC[C@H](CN3CCC(O)CC3)CC2)cc1 [Example 2-225],> 100 nM
6,CC1(C)Oc2ncnc(N)c2N=C1c1ccc([C@H]2CC[C@H](CN3CCC(O)(c4ccccc4)CC3)CC2)cc1 [Example 2-226],> 100 nM
7,CN1CCN(C[C@H]2CC[C@H](c3ccc(C4=Nc5c(N)ncnc5OC4(C)C)cc3)CC2)CC1 [Example 2-230],10 to 100 nM
8,CC(C)(C)OC(=O)N1CCN(C[C@H]2CC[C@H](c3ccc(C4=Nc5c(N)ncnc5OC4(C)C)cc3)CC2)CC1 [Example 2-242],> 100 nM
9,CC1(C)Oc2ncnc(N)c2N=C1c1ccc(C2CCNCC2)cc1 [Example 3-2],> 100 nM
10,CC1(C)Oc2ncnc(N)c2N=C1c1ccc(N2CCC(Cc3ccccc3)CC2)cc1 [Example 4-2],> 100 nM
11,Cc1nc(N)c2c(n1)OC(C)(C)C(c1ccc([C@H]3CC[C@H](CC(=O)O)CC3)cc1)C2 (some centres unmarked) [Example 7-2],10 to 100 nM
12,Cc1ccc(C2=Cc3c(N)ncnc3OC2(C)C)cc1 [Example 7-3],> 100 nM
13,CC1(C)Oc2ncnc(N)c2N=C1c1ccc2c(c1)COC21CCC(CC(=O)O)CC1 (centres unmarked) [Example 8-2],10 to 100 nM
14,Cc1nc(N)c2c(n1)OC(C)(C)C(c1ccc3c(c1)CCC31CCC([C@@H](C)C(=O)O)CC1)=N2 (some centres unmarked) [Example 8-4],10 to 100 nM
15,Cc1nc(N)c2c(n1)OC(C)(C)C(c1ccc3c(c1)CC[C@]31CC[C@@H](CC(=O)O)CC1)=N2 [Example 8-6],10 to 100 nM
16,CC1(C)Oc2ncnc(N)c2N=C1c1ccc2c(c1)CCC[C@]21CC[C@@H](CC(=O)O)CC1 [Example 8],< 10 nM
17,Cc1nc(N)c2c(n1)OC(C)(C)C(c1ccc(C3CCC([C@H](C)C(=O)O)CC3)cc1)=N2 (some centres unmarked) [Example 9-2],10 to 100 nM
18,CC1(C)Oc2ncnc(N)c2N=C1c1ccc2c(c1)CC[C@@H]1C/C(=C\C(=O)O)CC[C@H]21 [Example 10-2],10 to 100 nM
19,CC1(C)Oc2ncnc(N)c2N=C1c1ccc(C2CCC(C(C)(C)C(=O)O)CC2)cc1 (centres unmarked) [Example 10-3],< 10 nM
20,CC1(C)Oc2ncnc(N)c2N=C1c1ccc(C2CCC3(CC2)CC3C(=O)O)cc1 (centres unmarked) [Example 10-4],10 to 100 nM
21,CC1(C)Oc2ncnc(N)c2N=C1c1ccc(C2CCC(C3(C(=O)O)CC3)CC2)cc1 (centres unmarked) [Example 10-5],10 to 100 nM

row,Structure (SMILES),IC50
1,CC1(C)Oc2ncnc(N)c2N=C1c1ccc(C2CCC(C(O)C(=O)O)CC2)cc1 (centres unmarked) [Example 10-6],10 to 100 nM
2,CC1(C)Oc2ncnc(N)c2N=C1c1ccc(C2CCC(c3cc(O)[nH]n3)CC2)cc1 (centres unmarked) [Example 10-7],10 to 100 nM
3,CC1(C)Oc2ncnc(N)c2N=C1c1ccc(C2CCC(c3cc(O)no3)CC2)cc1 (centres unmarked) [Example 10-8],10 to 100 nM
4,CC1(C)Oc2ncnc(N)c2N=C1c1ccc(C2CCC(c3cc(O)on3)CC2)cc1 (centres unmarked) [Example 10-9],10 to 100 nM
5,CC1(C)Oc2ncnc(N)c2N=C1c1ccc2c(c1)CCC21CCC(CC(=O)O)CC1 (centres unmarked) [Example 10-10],< 10 nM
6,CC1(C)Oc2ncnc(N)c2N=C1c1ccc2c(c1)C(C)(C)CCC21CCC(CC(=O)O)CC1 (centres unmarked) [Example 10-11],10 to 100 nM
7,CC1(C)Oc2ncnc(N)c2N=C1c1ccc2c(c1)CCCC21CCC(C2(C(=O)O)CC2)CC1 (centres unmarked) [Example 10-12],10 to 100 nM
8,CC1(C)Oc2ncnc(N)c2N=C1c1ccc2c(c1)CCC21CCC(C(C)(C)C(=O)O)CC1 (centres unmarked) [Example 10-13],< 10 nM
9,Cc1nc(N)c2c(n1)OC(C)(C)C(c1ccc(C3CCC(C(C)(C)C(=O)O)CC3)cc1)=N2 (centres unmarked) [Example 10-14],10 to 100 nM
10,CC(C(=O)O)C1CCC(c2ccc(C3=Nc4c(N)nc(C(F)(F)F)nc4OC3(C)C)cc2)CC1 (centres unmarked) [Example 10-15],< 10 nM
11,Cc1nc(N)c2c(n1)OC(C)(C)C(c1ccc3c(c1)CCC31CCC(C(C)(C)C(=O)O)CC1)=N2 (centres unmarked) [Example 10-16],10 to 100 nM
12,CC(C(=O)O)C1CCC2(CCc3cc(C4=Nc5c(N)nc(C(F)(F)F)nc5OC4(C)C)ccc32)CC1 (centres unmarked) [Example 10-17],< 10 nM
13,CCc1nc(N)c2c(n1)OC(C)(C)C(c1ccc(C3CCC(CC(=O)O)CC3)cc1)=N2 (centres unmarked) [Example 10-18],10 to 100 nM
14,CC1(C)Oc2nc(C(F)(F)F)nc(N)c2N=C1c1ccc(C2CCC(C3(C(=O)O)CC3)CC2)cc1 (centres unmarked) [Example 10-19],10 to 100 nM
15,CC1(C)Oc2nc(C(F)(F)F)nc(N)c2N=C1c1ccc(C2CCC(C(C)(C)C(=O)O)CC2)cc1 (centres unmarked) [Example 10-20],10 to 100 nM
16,Cc1nc(N)c2c(n1)OC(C)(C)C(c1ccc(C3CCC(C4(C(=O)O)CC4)CC3)cc1)=N2 (centres unmarked) [Example 10-21],10 to 100 nM
17,Cc1nc(N)c2c(n1)OC(C)(C)C(c1ccc([C@H]3CC[C@H](CC(=O)O)CC3)c(C)c1)=N2 [Example 10-22],10 to 100 nM
18,CCc1nc(N)c2c(n1)OC(C)(C)C(c1ccc([C@H]3CC[C@H](CC(=O)O)CC3)cc1)N2 (some centres unmarked) [Example 10-23],10 to 100 nM
19,Cc1nc(N)c2c(n1)OC(C)(C)C(c1ccc3c(c1)CCC31CCC(C3(C(=O)O)CC3)CC1)=N2 (centres unmarked) [Example 10-24],10 to 100 nM
20,CC1(C)Oc2nc(C(F)(F)F)nc(N)c2N=C1c1ccc2c(c1)CCC21CCC(C2(C(=O)O)CC2)CC1 (centres unmarked) [Example 10-25],10 to 100 nM

# From patent publication US7244727B2, “Fused bicyclic nitrogen-containing heterocycles” (Japan Tobacco Inc., priority 2002, dated 2007)
